{"source": "patent US11957671B2", "about": "“Benzodioxane modulators of leukotriene A4 hydrolase (LTA4H) for prevention and treatment of aging-associated diseases” (Alkahest, Inc., priority 2021, dated 2024)", "key": {"aged mice": {"test_system": "aged mice", "assay": "CA1 synapse density by histology", "type": "in vivo, mouse", "conditions": "preliminary data, pre- and post-synaptic protein staining"}, "[1]": {"test_system": "hippocampal neurons of aged C57BL/6 mice", "assay": "Single cell RNA sequencing of NeuN+ hippocampal nuclei (CA1, DG)", "type": "in vivo, mouse", "method": "Aged C57BL/6 mice (21 months of age) were treated for 1 month bid po with vehicle, 1 mg/kg Compound 1, or 2.5 mg/kg SC57461A (n=3 mice per treatment group). NucSeq For Mouse Brain Tissue protocol from 10× Genomics was used to isolate mouse hippocampus nuclei. Approximately 65 mg of brain tissue were used per treatment. Nonidet P40 was used to lyse cell walls and isolated nuclei were stained with Draq5 and NeuN antibodies for FACS sorting. Approximately 5,000 nuclei were collected for each sample. Eight samples were collected for each treatment for a total of 40,000 nuclei per treatment. These samples were prepped for sequencing using the 10× Genomics Chromium Next GEM kit.\nGO terms are generated using the g:Profiler Web server (https://bitt.cs.ut.ee/gprofiler) to analyze differential regulated gene lists. Reported are the top 20 gene ontology (GO terms) terms from the biological process category, sorted by significance as determined by P-value. This list was filtered to report significant GO terms that include less than 1000 genes."}, "aged C57BL/6 mice [2]": {"test_system": "aged C57BL/6 mice", "assay": "Long term potentiation (LTP) in hippocampal slices", "type": "in vivo, mouse", "conditions": "1 month bid po, 1 mg/kg Compound 1 or 2.5 mg/kg SC57461A", "method": "Aged C57BL/6 mice (21 months of age) were treated for 1 month bid po with vehicle, 1 mg/kg Compound 1, or 2.5 mg/kg SC57461A (n=5 mice per treatment group). Electrophysical recordings were performed at AfaSci, Inc, as follows. Animals were deeply anesthetized with halothane and decapitated. The brain was quickly taken out and placed into ice-cold artificial cerebrospinal fluid (ACSF) that was continuously bubbled with 5% CO2/95% O2. The ACSF was composed of (in mM) NaCl 130.0, KCl 2.5, KH2PO4 1.2, CaCl2 2.4, MgSO4 1.3, NaHCO326.0 and glucose 10.0 (pH 7.4). Hippocampal slices (400 μm thick) were prepared using a tissue slicer (Stoelting Co., IL) and incubated at room temperature in continuously oxygenated ACSF for at least 1 h before being recorded with submerged mode in chamber (Harvard Apparatus) at room temperature. Data were collected with an Axopatch-2B amplifier and pClamp 10.4 program (Axon Instruments) through digidata 1320A.\nField population spike (PS) was recorded using glass microelectrode filled with ACSF (resistance: 1-3 MO). Biphasic current pulses (0.2 ms duration for one phase, 0.4 ms in total) were delivered in 10 s intervals through a concentric bipolar stimulating electrode (FHC, Inc.). […] To record field population spikes in dorsal dentate gyrus, the stimulating electrode was placed on the hippocampal fissure to stimulate the bypassing perforant pathway fibers and the recording electrode was placed on inner part of granular cell layer. To record field EPSPs in DG, the stimulating electrode was placed on the hippocampal fissure to stimulate the bypassing perforant pathway fibers and the recording electrode was placed on inner part of granular cell layer. Slices were recorded within 8 hours after dissection. Titanic stimulation consisted of 2 trains of 100 pulses (0.4 ms bipolar pulse duration, 100 Hz) lasting for 1 second with 5 seconds of interval. The slope of EPSP and amplitude of population spike were measured from the initial phase of negative wave with Clampfit10.4. Each data point was measured with average of 3 consecutive traces. LTP was plotted as the percentage to baseline following high frequency stimulation (mean±SEM)."}, "[3]": {"test_system": "brain endothelial cells of aged C57BL/6 mice", "assay": "Single cell RNA sequencing of brain endothelial cells (BECs)", "type": "in vivo, mouse", "method": "Male C57BL/6 mice aged 20-21 months were treated with Vehicle or SC-57461A commercially available LTA4H inhibitor. The mice were dosed with SC-57461A at 2.5 mg/kg PO bid for one month. Mice were anesthetized and blood and tissues were collected for further analysis. Blood was collected via cardiac puncture in syringes pre-filled with Heparin. Brains were collected following ACSF perfusion and processed for single cell RNA sequencing of labeled endothelial cells.\nBrain endothelial cells (BECs) were sorted, sequenced, and analyzed based on techniques known to those having ordinary skill in the art. […] Gates were determined to separate CD31-positive, CD11b-negative endothelial cells from CD11b-positive, CD31-negative microglia. […]\nAged C57BL/6 mice (21 months of age) were treated for 1 month bid P.O. with vehicle, 1 mg/kg Compound 1, or 2.5 mg/kg SC57461A (n=3 mice per treatment group). Brain endothelial cells were sorted, sequenced and analyzed as described in Example 12 (See Chen M B, et al., Cell Rep, 30(13):4418-32e4 (2020) which is herein incorporated by reference in its entirety).\nGO terms are generated using the g:Profiler Web server (https://bitt.cs.ut.ee/gprofiler) to analyze differential regulated gene lists. Reported are the top 20 gene ontology (GO terms) terms from the biological process category, sorted by significance as determined by P-value. […]"}, "aged C57BL/6 mice [4]": {"test_system": "aged C57BL/6 mice", "assay": "Unbiased single cell RNA sequencing of brain tissue", "type": "in vivo, mouse", "conditions": "2.5 mg/kg bid P.O. 1 month", "method": "Aged C57BL/6 mice (21 months of age) were treated for 1 month bid P.O. with vehicle or 2.5 mg/kg SC57461A (n=3 mice per treatment group). One cortical cap (cortex and hippocampus) from each mouse was isolated and cells were dissociated and sorted using Sony Multi-Application Cell Sorter MA900. Unbiased RNA sequencing from single brain cells were analyzed according to techniques described previously (Yousf H, et al., Bio Protoc., 8(22):e3091 (2018), which is herein incorporated by reference in its entirety)."}, "[5]": {"test_system": "purified endothelial cells from the brains of aged C57BL/6 mice", "assay": "Microbulk qPCR of endothelial genes", "type": "in vivo, mouse", "conditions": "1 month bid P.O., 1 mg/kg Compound 1 or 2.5 mg/kg SC57461A", "method": "(§1) Downregulation of the detrimental genes Bsg, Gbp4, and CXCL12 in purified endothelial cells from the brains of mice treated with LTA4H inhibitors Compound 1 or SC57461A were compared to those of vehicle treated mice. Gene expression was measured by qPCR from 500 sorted endothelial cells and was normalized to GAPDH control.\nAged C57BL/6 mice (21 months of age) were treated for 1 month bid P.O. with vehicle, 1 mg/kg Compound 1, or 2.5 mg/kg SC57461A (n=3 mice per treatment group). One cortical cap (cortex and hippocampus) from each mouse was isolated and cells were dissociated using Miltenyi Neutral Dissociation Kit (#130-092-628). Cells were sorted using Sony Multi-Application Cell Sorter MA900 into clean, RNAase free 200 uL PCR strip tube with 5 uL RNAlater at a concentration of 500 cells per tube. RNA was isolated follow kit protocol for Qiagen RNeasy Micro Kit (#74004). cDNA was synthesized using SuperScript III Kit Protocol and qPCR assays were run using TaqMan or SYBR green primers.\nas §1, with “beneficial gene, Plat,” for “detrimental genes Bsg, Gbp4, and CXCL12”"}, "mice": {"test_system": "mice", "conditions": "previous studies; cited from earlier work"}, "[6]": {"conditions": "1 month bid po, 1 mg/kg Compound 1 or 2.5 mg/kg SC57461A"}}, "data": [{"compound": "CN(CCCOc1ccc(Cc2ccccc2)cc1)CCC(=O)O.Cl", "note": "[SC-57461A, reference compound]", "values": [{"measurement": "synapse density in the CA1 region of the hippocampus", "setting": "aged mice", "result": "no trend in increased CA1 synapse density"}, {"measurement": "CA1 neuronal gene changes", "setting": "[1]; [6]", "result": "many significant gene changes to neurons in the CA1 region of the hippocampus"}, {"measurement": "DG neuronal gene changes", "setting": "[1]; [6]", "result": "many significant gene changes to neurons in the DG region of the hippocampus"}, {"measurement": "Dcc gene expression in the dentate gyrus", "setting": "[1]; [6]", "result": "not significantly impacted"}, {"measurement": "Spock3 gene expression in the dentate gyrus", "setting": "[1]; [6]", "result": "not significantly impacted"}, {"measurement": "Biological Process GO terms, CA1 hippocampal neurons", "setting": "[1]; long-term treatment", "result": "changes to synapses"}, {"measurement": "Biological Process GO terms, DG hippocampal neurons", "setting": "[1]; long-term treatment", "result": "changes to synapses"}, {"measurement": "LTP, CA1 region of the hippocampus", "setting": "aged C57BL/6 mice [2]", "result": "did not show the same LTP increase"}, {"measurement": "LTP, DG region of the hippocampus", "setting": "aged C57BL/6 mice [2]", "result": "did not show the same LTP increase"}, {"measurement": "Biological Process GO terms, BECs", "setting": "[3]; 2.5 mg/kg PO bid one month", "result": "changes to the endothelial milieu"}, {"measurement": "endothelial cell gene changes, enriched brain endothelial cells", "setting": "[3]; 2.5 mg/kg bid P.O. 1 month", "result": "many significant gene changes to brain endothelial cells"}, {"measurement": "Biological Process GO terms, astrocytes", "setting": "aged C57BL/6 mice [4]", "result": "changes to astrocytes"}, {"measurement": "Biological Process GO terms, endothelial", "setting": "aged C57BL/6 mice [4]", "result": "changes to endothelial"}, {"measurement": "Biological Process GO terms, pericytes", "setting": "aged C57BL/6 mice [4]", "result": "changes to pericyte"}, {"measurement": "astrocyte gene changes", "setting": "aged C57BL/6 mice [4]", "result": "many significant gene changes to astrocytes"}, {"measurement": "endothelial cell gene changes", "setting": "aged C57BL/6 mice [4]", "result": "many significant gene changes to brain endothelial cells"}, {"measurement": "pericyte gene changes", "setting": "aged C57BL/6 mice [4]", "result": "many significant gene changes to pericytes"}, {"measurement": "Bsg gene expression", "setting": "[5]", "result": "down regulation of Bsg gene expression"}, {"measurement": "CXCL12 gene expression", "setting": "[5]", "result": "down regulation of CXCL12 gene expression"}, {"measurement": "Gpb4 gene expression", "setting": "[5]", "result": "down regulation of Gpb4 gene expression"}, {"measurement": "Plat gene expression", "setting": "[5]", "result": "up regulation of Plat gene expression"}, {"measurement": "memory domains improved", "setting": "mice", "result": "only improved spatial memory"}]}]}
